The values that follow come from US20240239801A1, “PYRIMIDO[5,4,D]PYRIMIDINE COMPOUNDS, COMPOSITIONS COMPRISING THEM AND USES THEREOF” (Université de Montréal, priority 2021, published 2024).

Read-outs that look alike come from different tables or passages of the source.

Usually IC50 stands for the concentration that gives 50% inhibition.

The test system of one experiment is SW480 pERK. The experiment is described as follows: Phospho-ERK inhibition, AlphaLISA SureFire Ultra p-ERK 1/2. It counts as cell-based, human. The settings on record: for IC50: 1 h treatment; for SW480 (Ymin %): lowest value of the pERK IC50 curve. As for the experimental part: (§1) All cancer cell lines (A375, A101D, A2058, RKO, HT29 SK-MEL 30, IPC298, HepG2, HCT-116, Lovo, SW620, SW480, NCI-H358, NCI-H2122, Calu-6, NCIH2087, NCIH1755, NCIH1666 and Mewo) were obtained from ATCC and cultured in RPMI-1640 medium (Gibco) supplemented with 5% heat inactivated fetal bovine serum (FBS, Wisent) at 37° C. under 5% CO2. Cells were maintained in T175 flasks (Greiner). They were passaged by removing the culture medium, washing once in 10 mL of room temperature Phosphate Buffered Saline (PBS; Wisent) and incubating at 37° C. with 2 mL of 0.05% Trypsin (Thermo-Fisher). Trypsin was then inactivated by adding complete growth medium and the cells were then replated in a T175 culture dish at the appropriate dilution. All cell lines were routinely tested for mycoplasma contamination. Tissue type and mutational status of each cell line can be found in Table B.
(§2) AlphaLISA® SureFire® Ultra™ p-ERK ½ (Thr202/Tyr204) analysis was conducted on cells plated in 100 μL of complete RPMI-1640 growth medium in 96-well flat-bottomed transparent dishes (Costar) at a density indicated in Table C. Cells were maintained overnight at 37° C. under 5% CO2 before treatment with compounds' dilution series for one hour. The cell density in cells/cm^2 corresponds to cell number divided by the area of one well of a 96-well plate ([…]).
(§3) In a dilution series 100 μL/well of test substance dilution prepared in complete RPMI-1640 growth media was added to the cells. The dilution series is selected so that ten concentrations cover a range from 30 μM or 10 μM to 0.33 nM. If necessary, the initial concentration of 10 μM is increased to 100 μM or lowered to 1 μM (as in the case of A375 and NCIH1666 cells, which are generally more sensitive to the compounds) and further dilution is carried out accordingly. The final concentration of DMSO in the assay is set at 0.5%.
(§4) After treatment, media was removed, and cells were lysed in 50 μL of 1× AlphaScreen Ultra Lysis Buffer (Perkin Elmer). The AlphaLISA® SureFire® Ultra™ p-ERK ½ (Thr202/Tyr2O4) (PerkinElmer) reactions were performed with 5 μL of cell lysate according to the manufacturer's specifications in 384-well proxyplates (Perkin Elmer) followed by overnight incubation of the reactions at room temperature in a humidified chamber. After completion of the reactions, the signals were recorded on an EnVision plate reader (Perkin Elmer) using built in AlphaLISA® settings.
(§5) The effect of each compound dilution on the pERK signal was expressed in % inhibition and calculated as follows. An internal 100% inhibition control (1 μM trametinib, cat. No. HY-10999; MedChem Express; CAS No. 871700-17-3) was included in each plate and used as a measure of pERK background. First, the value obtained for trametinib was subtracted from each data point. The average of DMSO (vehicle) controls (set as 0% inhibition) was established and used to calculate % inhibition:
(§6) The ability of each compound to inhibit pERK signal was expressed as an IC50 value obtained by plotting the inhibition values for each data point of a dilution series and fitting the obtained curves using a log(agonist) versus response−variable slope (four parameters) function using GraphPadPrism (V7.0).
(§7) When present, paradoxical pERK induction is inferred from the negative % inhibition values observed in the pERK IC50 curves of a compound.

For the next experiment, the system named is HCT116 pERK. Described as above. It counts as cell-based, human. The settings on record: for IC50: 1 h treatment; for HCT116 (Ymin %): lowest value of the pERK IC50 curve. As for the experimental part: as §1, §2, §3, §4, §5, §6, §7
[1] abbreviates: Table 2, read-out: SW480 PERK IC50 (UM).
The mark [2] stands for this setting: Table 3, read-out: SW480 PERK IC50.

`CSc1ncc2ncnc(Nc3c(F)ccc(NS(=O)(=O)c4ccc(C)cc4C)c3F)c2n1` [Example 23]: the IC50 in the experiment with SW480 pERK (setting [1]) and with HCT116 pERK (Table 2) was 1 to 10 µM in each case. Also, in the experiment on SW480 pERK (Table 2), the “SW480 (Ymin %)” value is given as −7%. In the experiment with HCT116 pERK (Table 2), the “HCT116 (Ymin %)” value was 0%.

For the compound `CSc1ncc2ncnc(Nc3c(F)ccc(NS(=O)(=O)c4ccccc4C)c3F)c2n1` [Example 20], the IC50 with SW480 pERK (setting [1]) and with HCT116 pERK (Table 2) was 1 to 10 µM in each case. For the same compound, the “SW480 (Ymin %)” value in the experiment on SW480 pERK (Table 2) is given as 12%. Further, the “HCT116 (Ymin %)” value with HCT116 pERK (Table 2) came out at 7%.

For the compound `COc1ccc(S(=O)(=O)Nc2ccc(F)c(Nc3ncnc4cnc(-n5cnc6ccccc65)nc34)c2F)c(F)c1` [Example 45], the 50% inhibitory concentration (IC50) in the experiment with SW480 pERK (setting [2]) and with HCT116 pERK (Table 3) was 1 to 10 µM in each case. The “SW480 (Ymin %)” value in the experiment on SW480 pERK (Table 3) is given as −8%. Also, in the experiment with HCT116 pERK (Table 3), the “HCT116 (Ymin %)” value is 11%.

On to `COC(=O)c1sccc1S(=O)(=O)Nc1ccc(F)c(Nc2ncnc3cnc(SC)nc23)c1F` [Example 3], for which the IC50 in the experiment with SW480 pERK (setting [1]) fell in the range of 1 to 10 µM. The “SW480 (Ymin %)” value with SW480 pERK (Table 2) is reported as 9%. Further, in the experiment on HCT116 pERK (Table 2), the IC50 lay in the range of 1 to 10 µM and the “HCT116 (Ymin %)” value is recorded as −7%.

For the compound `O=S(=O)(Nc1ccc(F)c(Nc2ncnc3cnc(N4CC[C@H](F)C4)nc23)c1F)c1ccc2c(c1)CCO2` [Example 66], in the experiment on SW480 pERK (setting [2]), the half-maximal inhibitory concentration (IC50) lay within 1 to 10 µM. Moreover, the “SW480 (Ymin %)” value with SW480 pERK (Table 3) is 0%. In the experiment with HCT116 pERK (Table 3), the IC50 fell in the range of 10 to 30 µM and the “HCT116 (Ymin %)” value is 10%.

`CSc1ncc2ncnc(Nc3c(F)ccc(NS(=O)(=O)c4ccc(C)cc4)c3F)c2n1` [Example 18]: the half-inhibitory concentration (IC50) in the experiment on SW480 pERK (setting [1]) lay in the range of 1 to 10 µM; with HCT116 pERK (Table 2) it was 10 to 30 µM. Besides, the “SW480 (Ymin %)” value with SW480 pERK (Table 2) is on record as 11%. Moreover, the “HCT116 (Ymin %)” value with HCT116 pERK (Table 2) was determined as 4%.

For `CSc1ncc2ncnc(Nc3c(F)ccc(NS(=O)(=O)c4ccc(Cl)cc4Cl)c3F)c2n1` [Example 15], the half-maximal inhibitory concentration (IC50) in the experiment on SW480 pERK (setting [1]) and with HCT116 pERK (Table 2) was 10 to 30 µM each time. Moreover, in the experiment on SW480 pERK (Table 2), the “SW480 (Ymin %)” value was determined as 0%. Moreover, in the experiment on HCT116 pERK (Table 2), the “HCT116 (Ymin %)” value is reported as −3%.

With `COc1ccc(S(=O)(=O)Nc2ccc(F)c(Nc3ncnc4cnc(OC)nc34)c2F)cc1` [Example 46], the IC50 in the experiment with SW480 pERK (setting [2]) is 10 to 30 µM. Besides, the “SW480 (Ymin %)” value with SW480 pERK (Table 3) is on record as 12%. Moreover, in the experiment with HCT116 pERK (Table 3), the concentration for half-maximal inhibition (IC50) lay within 10 to 30 µM and the “HCT116 (Ymin %)” value stood at 8%.

With `CO[C@@H]1CCN(S(=O)(=O)Nc2ccc(F)c(Nc3ncnc4cnc(N5Cc6ccccc6C5)nc34)c2F)C1` [Example 67], the concentration for half-maximal inhibition (IC50) in the experiment on SW480 pERK (setting [2]) and in the experiment on HCT116 pERK (Table 3) was 1 to 10 µM throughout. Moreover, the “SW480 (Ymin %)” value with SW480 pERK (Table 3) came out at 18%. Moreover, in the experiment on HCT116 pERK (Table 3), the “HCT116 (Ymin %)” value is given as 6%.

Regarding `COc1ccc(S(=O)(=O)Nc2ccc(F)c(Nc3ncnc4cnc(-n5cnc(C)c5C)nc34)c2F)cc1` [Example 40], the IC50 with SW480 pERK (setting [2]) and in the experiment with HCT116 pERK (Table 3) was 1 to 10 µM each time. Besides, the “SW480 (Ymin %)” value in the experiment on SW480 pERK (Table 3) is reported as −7%. The “HCT116 (Ymin %)” value with HCT116 pERK (Table 3) was found to be 12%.

In the case of `COc1ccc(S(=O)(=O)Nc2ccc(F)c(Nc3ncnc4cnc(SC)nc34)c2F)c(C)c1` [Example 12], in the experiment with SW480 pERK (setting [1]), the IC50 is 1 to 10 µM. Also, the “SW480 (Ymin %)” value with SW480 pERK (Table 2) was −10%. Further, in the experiment on HCT116 pERK (Table 2), the half-inhibitory concentration (IC50) was 1 to 10 µM and the “HCT116 (Ymin %)” value is −7%.

In the case of `O=S(=O)(Nc1ccc(F)c(Nc2ncnc3cnc(-n4cnc5ccccc54)nc23)c1F)N1CCC(CCl)C1` (stereo not shown) [Example 75], the half-inhibitory concentration (IC50) with SW480 pERK (setting [2]) lay within 1 to 10 µM. Also, in the experiment on SW480 pERK (Table 3), the “SW480 (Ymin %)” value is on record as −6%. In the experiment on HCT116 pERK (Table 3), the IC50 fell in the range of 1 to 10 µM and the “HCT116 (Ymin %)” value is −10%.

As for `COc1ccc(S(=O)(=O)Nc2ccc(F)c(Nc3ncnc4cnc(N5CC(F)C5)nc34)c2F)cc1` [Example 47], the half-inhibitory concentration (IC50) with SW480 pERK (setting [2]) was in the range of 1 to 10 µM. Moreover, the “SW480 (Ymin %)” value in the experiment on SW480 pERK (Table 3) is on record as −1%. Besides, in the experiment on HCT116 pERK (Table 3), the IC50 was 1 to 10 µM and the “HCT116 (Ymin %)” value stood at 6%.
